Molecular target: T1, K2P2.1 (TREK-1) (Mus musculus, UniProt P97438)
T1 construct: expressed in transfected cells; host or cells: Xenopus oocytes (cRNA injection, pGEMHE/pMO)
T1 sequence (P97438 1-411 isoform P97438-2): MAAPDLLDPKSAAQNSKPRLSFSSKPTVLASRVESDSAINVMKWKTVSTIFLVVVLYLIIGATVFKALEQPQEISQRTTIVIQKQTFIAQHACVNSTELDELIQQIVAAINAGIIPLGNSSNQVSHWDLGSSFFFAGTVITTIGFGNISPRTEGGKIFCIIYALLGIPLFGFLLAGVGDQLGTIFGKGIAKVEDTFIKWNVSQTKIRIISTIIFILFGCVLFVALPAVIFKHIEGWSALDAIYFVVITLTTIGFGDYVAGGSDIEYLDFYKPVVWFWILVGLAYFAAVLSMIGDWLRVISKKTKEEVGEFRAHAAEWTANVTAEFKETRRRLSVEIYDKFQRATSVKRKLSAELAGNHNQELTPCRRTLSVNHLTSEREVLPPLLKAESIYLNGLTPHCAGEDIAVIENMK
Assay: Excised membrane patches (outside-out, inside-out) from HEK-293T cells expressing K2P2.1 (TREK-1)
Assay type: cell-based, Murine
Experimental: FIG. 5 ML67-33 activates K2P2.1 (TREK-1) in excised membrane patches a, and b, exemplar I-V curves showing the effect of ML67-33 on K2P2.1 (TREK-1) in a, outside-out and b, inside-out excised patches from HEK-293T cells; currents were elicited by a voltage ramp from −100 to 50 mV from a holding potential of −40 mV. c, Exemplar channel responses to ML67-33 measured at 0 mV in the indicated configurations. Grey region indicates presence of 20 μM ML67-33. d, Times of half-maximal activation following ML67-33 application and recovery from activation (wash) following ML67-33 removal, measured in HEK-293T cells at 0 mV. Error bars: mean±s.e. n≧6, N≧2. ‘**’ indicates p≦0.01 and ‘N.S.’ indicates not significant (p≧0.05) as determined by t-test analysis.
Two-electrode voltage clamp recordings were performed from defolliculated stage V-VI Xenopus oocytes 24-48 hours after injection with 0.015-6.0 ng cRNA, using microelectrodes (0.3-3.0 MΩ) filled with 3M KCl. Data was acquired using the GeneClamp 500B (MDS Analytical Technologies) amplifier controlled by the pClamp software (Molecular Devices), and digitized at 1 kHz using Digidata 1332A (MDS Analytical Technologies). Recording solutions (mM): 2K (96 NaCl, 2 KCl, 1.8 CaCl2, 2 MgCl2), 90K (90 KCl, 8 NaCl, 1.8 CaCl2, 2 MgCl2), were buffered 5 mM HEPES pH 7.4. For K2P recordings, currents we elicited by a 1 second long ramp from −150 to +50 mV from a holding potential of −80 mV (2K), or −100 to +50 mV from a holding potential of 0 mV (90K). For KCNQ2 recordings, currents were elicited by a step protocol from −120 to 60 mV, in 20 mV increments, from a holding potential of −80 mV. Patch-clamp recordings from HEK-293T cells were performed using microelectrodes (2-3 MΩ) filled with 1M KCl. Data was acquired using the Axopatch 200B amplifier controlled by pClamp software, and digitized at 1 kHz using Digidata 1332A. Recording solutions (mM): intracellular (145 KCl, 5 EGTA, 3 MgCl2,) extracellular (150 NaCl, 5 KCl, 3 MgCl2, 1 CaCl2) were buffered with 5 mM HEPES pH 7.2 and 7.4, respectively. Currents were elicited by a 1 second long ramp from −150 to +50 mV from a holding potential of −80 mV. Data were fitted with a modified Hill's equation: I=Imin+(Imax−Imin)/(1+10^((Log EC50−Log [C])*H)), where Imax and Imin are maximal and minimal current values, respectively, EC50 is a half-maximal effective concentration of the compound, and H is the Hill coefficient.
To understand the mechanism of action of ML67-33, we examined how it affected K2P2.1 (TREK-1) expressed in two widely-used experimental systems, Xenopus oocytes and mammalian cells. […] Further, the effects of ML-67-33 were fast, occurring within seconds (half-maximal activation time, 4.1±0.5 s, mean±s.e., n=7, N=2) and were reversible upon washout (FIG. 4d). […] The times of half-maximal activation and return to baseline following compound washout (t1/2act and t1/2wash, respectively) in the outside-out configuration were indistinguishable from the same parameters measured in the whole-cell configuration (t1/2act:t1/2wash, mean±s.e. 4.1±0.5 s:3.9±0.5 s and 4.6±0.9 s:3.1±0.7 s for whole-cell and outside-out, respectively, FIGS. 5c and d). In stark contrast, both t1/2 values slowed substantially when the compound was applied to the inside-out configuration.

Compound: CC1(C)c2cc(Cl)ccc2N(CCc2nnn[nH]2)c2ccc(Cl)cc21 [ML67-33, 2,7-dichloro-9,9-dimethyl-10-[2-(1H-tetrazol-5-yl)ethyl]acridine]
- t1/2act (inside-out patch): 10.8 ± 1.3 s
- t1/2wash (inside-out patch): 22.0 ± 5.1 s
- effect on K2P2.1 (TREK-1) in excised patches (in words) (outside-out and inside-out configurations): activated
- t1/2act (outside-out patch): 4.6 ± 0.9 s
- t1/2wash (outside-out patch): 3.1 ± 0.7 s
